Patent publication US6630488B1, “Quinolizinones as integrin inhibitors” (Biochem Pharma, Inc., priority 1998, dated 2003)
pIC50: −log10 of the molar value. Where a name gives a salt, the structure may show the parent alone.

Columns and labels:
[1] = test system: Chick Chorioallantoic Membrane (CAM) capillary formation; assay: Chick chorioallantoic membrane (CAM) mesh assay; type: in vivo, chicken; conditions: Day 12, 24 hr treatment
Experimental: Fertilized white leghorn chicken eggs (SPAFAS Inc., Norwich, Conn.) were received at day 0 and incubated for 3 days at 37 C with constant humidity. On day 3, eggs were rinsed with 70% ethanol and opened into 100 mm^2 tissue culture coated Petri dishes under aseptic conditions. The embryos were then returned to a humidified 38 C incubator for 7-9 additional days.
Vitrogen (Collagen Biomaterials, Palo Alto, Calif.) at a final concentration of 0.73 mg/ml and Matrigel (Becton Dickinson, Bedford, Mass.) at a final concentration of 10 mg/ml was directly pipetted onto Nylon meshes with 250 μm^2 openings which were cut into 4 mm×4 mm squares and autoclaved. Polymerization of meshes were under aseptic conditions, on bacteriological Petri dishes. The polymerization conditions for each substrate were identical; after mixing with or without […] of VPF/VEGF165 (Peprotech, Rocky Hill, N.J.) and/or compounds of interest, 40 μl were pipetted onto each mesh in a bacteriological Petri dish.
The Petri dish was placed in a humidified 37 C incubator with 5% CO2 for 30 minutes to allow polymerization followed by an incubation at 4 C for 2 hours.
In a tissue culture enclosure, meshes were placed onto the periphery of the CAM of a day 12-14 embryo, excluding areas containing major vessels. The embryos were then returned to the humidified 38 C incubator with 3% CO2 for 24 to 48 additional hours.
Embryos were removed from the incubator and meshes were viewed under a dissecting microscope for gross evaluation. Injection of 400 μl FITC dextran, MW 2,000,000 (Sigma, St. Louis, Mo.) through glass microcapillary tubes by infusion into the umbilical vein was performed at a rate of 200 μl per minute. The FITC dextran was allowed to circulate for 5 minutes and 3.7% formaldehyde in PBS was applied directly on each mesh. The embryos were then incubated at 4 C for 5 minutes and the meshes were dissected off the CAM and fixed in 3.7% formaldehyde for 10 minutes to overnight.
After fixation, meshes were mounted on slides with 90% glycerol in PBS and visualized on an inverted fluorescence microscope. A Nikon Diaphot with a Sony DXC-151A camera attached to the side port was used for capture of images and analysis was with the NIH Image 1.61 software program. For each mesh, 5 random staggered images (approximately 600 μm each) were captured. The areas of high intensity were highlighted and measured. Results are expressed as ability to suppress capillary formation after subtraction from negative control. Values were calculated as i inhibition, considering 100% the capillary density achieved by VPF in the presence of vitrogen alone minus the background levels in the absence of VPF. Negative values indicate angiogenic stimulation above the VPF positive control.

[2] = biological target: T1, placental αvβ3 (Homo sapiens, UniProt P05106+P06756); assay: Fibrinogen binding to immobilized αvβ3; conditions: biotinylated-fibrinogen 10 nM, immobilized placental αvβ3; read-out: IC50 values for the fibrinogen binding assay αvβ3
T1 construct: purified active GP IIb-IIIa (Calbiochem) or olacental αvβ3 at 0.5 μg/ml; from tissue; host or cells: placenta
T1 sequence (P06756 31-889 limits assumed): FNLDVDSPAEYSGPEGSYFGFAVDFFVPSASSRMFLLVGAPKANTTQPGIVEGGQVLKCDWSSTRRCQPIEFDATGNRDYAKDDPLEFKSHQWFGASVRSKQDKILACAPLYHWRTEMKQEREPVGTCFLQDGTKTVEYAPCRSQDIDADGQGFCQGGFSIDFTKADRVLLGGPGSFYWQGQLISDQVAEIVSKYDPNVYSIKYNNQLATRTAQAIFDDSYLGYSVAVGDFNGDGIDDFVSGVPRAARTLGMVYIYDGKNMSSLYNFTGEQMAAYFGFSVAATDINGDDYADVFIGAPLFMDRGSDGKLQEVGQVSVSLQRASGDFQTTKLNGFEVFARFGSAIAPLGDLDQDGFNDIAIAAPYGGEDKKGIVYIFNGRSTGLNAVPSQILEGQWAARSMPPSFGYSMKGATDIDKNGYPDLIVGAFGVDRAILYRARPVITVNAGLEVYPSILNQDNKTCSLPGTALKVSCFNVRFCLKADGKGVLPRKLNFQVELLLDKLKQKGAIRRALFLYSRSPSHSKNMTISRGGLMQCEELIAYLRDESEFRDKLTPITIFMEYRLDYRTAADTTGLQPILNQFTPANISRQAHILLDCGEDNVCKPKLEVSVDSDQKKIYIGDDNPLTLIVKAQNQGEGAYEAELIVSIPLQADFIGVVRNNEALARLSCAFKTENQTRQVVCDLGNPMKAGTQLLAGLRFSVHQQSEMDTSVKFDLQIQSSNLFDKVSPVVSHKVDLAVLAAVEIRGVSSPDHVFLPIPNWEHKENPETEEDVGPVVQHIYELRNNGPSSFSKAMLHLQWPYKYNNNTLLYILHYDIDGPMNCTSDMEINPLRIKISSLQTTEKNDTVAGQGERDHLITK
T1 sequence (P06756 891-1048 partner limits assumed): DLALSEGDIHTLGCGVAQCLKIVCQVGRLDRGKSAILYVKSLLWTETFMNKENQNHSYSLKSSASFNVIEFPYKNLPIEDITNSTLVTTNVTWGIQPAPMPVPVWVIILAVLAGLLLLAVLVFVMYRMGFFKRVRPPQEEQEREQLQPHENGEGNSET
T1 sequence (P05106 27-788): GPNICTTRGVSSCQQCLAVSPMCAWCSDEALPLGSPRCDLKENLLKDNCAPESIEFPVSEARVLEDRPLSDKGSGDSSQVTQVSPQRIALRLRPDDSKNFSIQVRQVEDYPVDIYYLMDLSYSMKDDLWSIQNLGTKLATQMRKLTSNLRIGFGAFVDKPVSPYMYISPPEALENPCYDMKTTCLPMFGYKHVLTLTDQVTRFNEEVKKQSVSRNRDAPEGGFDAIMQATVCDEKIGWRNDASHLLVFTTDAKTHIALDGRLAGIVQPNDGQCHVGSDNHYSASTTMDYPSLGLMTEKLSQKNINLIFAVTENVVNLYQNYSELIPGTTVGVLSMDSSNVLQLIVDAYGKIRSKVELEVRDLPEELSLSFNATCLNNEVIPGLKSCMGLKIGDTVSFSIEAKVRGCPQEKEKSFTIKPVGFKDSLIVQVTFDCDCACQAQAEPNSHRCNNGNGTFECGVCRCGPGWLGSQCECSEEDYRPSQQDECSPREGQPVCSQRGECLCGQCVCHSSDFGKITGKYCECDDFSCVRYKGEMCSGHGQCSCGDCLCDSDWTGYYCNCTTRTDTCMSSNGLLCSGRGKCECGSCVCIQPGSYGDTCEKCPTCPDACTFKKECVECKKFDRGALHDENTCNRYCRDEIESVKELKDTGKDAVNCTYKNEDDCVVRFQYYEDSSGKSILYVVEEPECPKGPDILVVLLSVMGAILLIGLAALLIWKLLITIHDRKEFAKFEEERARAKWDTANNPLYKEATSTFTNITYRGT
Experimental: (§1) Nonbound fibrinogen was removed by five washes with binding buffer. Avidin conjugated to alkaline phosphatase (Sigma), diluted in binding buffer, was added and incubated for two hours at 37° C. The plates were washed five times with binding buffer, and after addition of the substrate PNPP (Pierce), the enzyme activity was measured by the absorbance at 405 nm.

[3] = biological target: T2, GP IIb-IIIa (αIIbβ3) (Homo sapiens, UniProt P05106+P08514); assay: Fibrinogen binding to immobilized GP IIb-IIIa (αIIbβ3); conditions: biotinylated-fibrinogen 10 nM, immobilized GP IIb-IIIa; read-out: IC50 values for the fibrinogen binding assay αIIbβ3
T2 construct: purchased Calbiochem
T2 sequence (P08514 32-887 limits assumed): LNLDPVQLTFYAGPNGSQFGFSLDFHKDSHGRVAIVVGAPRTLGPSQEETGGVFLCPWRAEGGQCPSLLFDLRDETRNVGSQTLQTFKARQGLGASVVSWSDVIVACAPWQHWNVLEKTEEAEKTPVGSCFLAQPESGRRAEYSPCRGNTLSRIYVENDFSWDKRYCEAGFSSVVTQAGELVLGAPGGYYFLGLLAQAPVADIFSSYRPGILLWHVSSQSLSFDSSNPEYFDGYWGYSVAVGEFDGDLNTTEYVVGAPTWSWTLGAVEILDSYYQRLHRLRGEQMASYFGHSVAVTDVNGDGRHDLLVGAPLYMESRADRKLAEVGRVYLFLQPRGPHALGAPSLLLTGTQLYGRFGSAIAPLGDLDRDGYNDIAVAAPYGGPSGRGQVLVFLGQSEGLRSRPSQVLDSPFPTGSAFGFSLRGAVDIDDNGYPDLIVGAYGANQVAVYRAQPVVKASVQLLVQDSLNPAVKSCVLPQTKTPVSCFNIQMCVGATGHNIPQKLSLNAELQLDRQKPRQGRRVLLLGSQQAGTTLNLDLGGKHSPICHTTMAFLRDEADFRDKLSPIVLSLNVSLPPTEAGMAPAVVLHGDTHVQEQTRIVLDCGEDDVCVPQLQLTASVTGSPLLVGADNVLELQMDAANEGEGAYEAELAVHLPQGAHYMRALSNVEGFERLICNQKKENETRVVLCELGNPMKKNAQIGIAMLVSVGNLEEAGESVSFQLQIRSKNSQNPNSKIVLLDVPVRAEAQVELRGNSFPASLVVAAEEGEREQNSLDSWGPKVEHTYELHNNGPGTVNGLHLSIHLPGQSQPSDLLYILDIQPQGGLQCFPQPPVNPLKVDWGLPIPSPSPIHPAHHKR
T2 sequence (P08514 891-1039 partner limits assumed): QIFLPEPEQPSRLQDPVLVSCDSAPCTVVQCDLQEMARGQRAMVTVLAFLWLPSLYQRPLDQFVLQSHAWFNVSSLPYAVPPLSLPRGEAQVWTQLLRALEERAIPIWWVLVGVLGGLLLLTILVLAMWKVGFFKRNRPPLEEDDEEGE
T2 sequence (P05106 27-788): as the sequence (P05106 27-788) above
Experimental: as §1

SMILES | pIC50 [2] | pIC50 [3] | also measured
NCCCOc1ccc2ccc(C(=O)N[C@H]3CCCC[C@@H]3C(=O)O)c(=O)n2c1.O=C(O)C(F)(F)F (racemic) [Compound V, (+/−)(trans)-2-{[7-(3-Amino-propoxy)-4-oxo-4H-quinolizine-3-carbonyl]-amino}-cyclohexanecarboxylic Acid Trifluoroacetic Acid Salt] | < 4.00 | 4.02 | CAM inhibition of capillary formation ([1]; 3 μg/mesh, +VPF): 7%; CAM inhibition of capillary formation ([1]; 3 μg/mesh, −VPF): 1%; CAM inhibition of capillary formation ([1]; 17 μg/mesh, +VPF): 9%; CAM inhibition of capillary formation ([1]; 17 μg/mesh, −VPF): 8%; CAM inhibition of capillary formation ([1]; 33 μg/mesh, +VPF): 20%; CAM inhibition of capillary formation ([1]; 33 μg/mesh, −VPF): 15%
N=C(N)N1CCN(c2ccn3c(=O)c(C(=O)NC(CC(=O)O)c4ccccc4)ccc3c2)CC1.O=C(O)C(F)(F)F (racemic) [Compound XL, (+/−)-3-{[8-(4-Carbamimidoyl-piperazin-1-yl)-4-oxo-4H-quinolizine-3-carbonyl]-amino}-3-phenyl-propionic Acid Trifluoroacetic Acid Salt] | 5.72 | – | CAM inhibition of capillary formation ([1]; 3 μg/mesh, +VPF): −2%; CAM inhibition of capillary formation ([1]; 3 μg/mesh, −VPF): 4%; CAM inhibition of capillary formation ([1]; 17 μg/mesh, +VPF): 7%; CAM inhibition of capillary formation ([1]; 17 μg/mesh, −VPF): 10%; CAM inhibition of capillary formation ([1]; 33 μg/mesh, +VPF): 11%; CAM inhibition of capillary formation ([1]; 33 μg/mesh, −VPF): 9%
N=C(N)NCc1ccc2cc(C(=O)NC[C@H](NC(=O)OCc3ccccc3)C(=O)O)cc(=O)n2c1 [Compound XLVIII, (S)-2-Benzyloxycarbonylamino-3-[(7-guanidinomethyl-4-oxo-4H-quinolizine-2-carbonyl)-amino]-propionic acid trifluoroacetic acid salt] | 8.31 | 5.59 | –
NCCCOc1ccc2cc(C(=O)NCCC(=O)O)cc(=O)n2c1 [Compound XVI, 3-{[7-(3-Amino-propoxy)-4-oxo-4H-quinolizine-2-carbonyl]-amino}-propionic Acid Trifluoroacetic Acid Salt] | < 4.00 | 5.82 | –
NCCCCOc1ccc2cc(C(=O)NC[C@H](NS(=O)(=O)c3ccccc3)C(=O)O)cc(=O)n2c1 [Compound XVII, (S)-3-{[7-(4-Amino-butoxy)-4-oxo-4H-quinolizine-2-carbonyl]-amino}-2-benzenesulfonylamino-propionic Acid Trifluoroacetic Acid Salt] | 5.29 | 9.77 | –
N=C(N)NCCCCOc1ccc2cc(C(=O)NC[C@H](NS(=O)(=O)c3ccccc3)C(=O)O)cc(=O)n2c1 [Compound XVIII, (S)-2-Benzenesulfonylamino-3-{[7-(4-guanidino-butoxy)-4-oxo-4H-quinolizine-2-carbonyl]-amino}-propionic Acid Hydrochloride] | 5.66 | 8.28 | –
N=C(N)NCCCOc1ccc2cc(C(=O)NCC(Nc3ncccn3)C(=O)O)cc(=O)n2c1 (stereo not drawn) [Compound XXII, 3-{[7-(3-Guanidino-propoxy)-4-oxo-4H-quinolizine-2-carbonyl]-amino}-2-(pyrimidin-2-ylamino)-propionic Acid Hydrochloride] | 6.27 | 7.35 | –
CN([C@@H](CNC(=O)c1cc(=O)n2cc(OCCCN)ccc2c1)C(=O)O)S(=O)(=O)c1ccccc1 [Compound XXIII, (S)-3-{[7-(3-Amino-propoxy)-4-oxo-4H-quinolizine-2-carbonyl]-amino}-2-(benzenesulfonyl-methyl-amino)-propionic Acid Trifluoroacetic Acid Salt] | < 4.00 | 6.09 | –
CN([C@@H](CNC(=O)c1cc(=O)n2cc(OCCCNC(=N)N)ccc2c1)C(=O)O)S(=O)(=O)c1ccccc1 [Compound XXIV, (S)-2-(Benzenesulfonyl-methyl-amino)-3-{[7-(3-guanidino-propoxy)-4-oxo-4H-quinolizine-2-carbonyl]-amino}-propionic Acid Hydrochloride] | 4.24 | 5.89 | –
O=C(NC[C@H](NS(=O)(=O)c1ccccc1)C(=O)O)c1cc(=O)n2cc(OCCCNc3ncccn3)ccc2c1 [Compound XXV, (S)-2-Benzenesulfonylamino-3-({4-oxo-7-[3-(pyrimidin-2-ylamino)-propoxy]-4H-quinolizine-2-carbonyl}-amino)-propionic Acid] | 4.82 | 5.90 | –
NCC1CCc2cc(C(=O)NCC(NS(=O)(=O)c3ccccc3)C(=O)O)cc(=O)n2C1 [Compound XXVIII, (2S, 7R) and (2S, 7S)-3-[(7-Aminomethyl-4-oxo-6,7,8,9-tetrahydro-4H-quinolizine-2-carbonyl)-amino]-2-benzenesulfonylamino-propionic Acid Trifluoroacetic Acid Salt] | 6.43 | 7.00 | –
NCCCOc1ccn2c(=O)cc(C(=O)NC[C@H](NS(=O)(=O)c3ccccc3)C(=O)O)cc2c1 [Compound XXX, (S)-3-{[8-(3-Amino-propoxy)-4-oxo-4H-quinolizine-2-carbonyl]-amino}-2-benzenesulfonylamino-propionic Acid Trifluoroacetic Acid Salt] | 4.77 | 6.96 | –
N=C(N)NCCCOc1ccn2c(=O)cc(C(=O)NC[C@H](NS(=O)(=O)c3ccccc3)C(=O)O)cc2c1 [Compound XXXI, (S)-2-Benzenesulfonylamino-3-{[8-(3-guanidino-propoxy)-4-oxo-4H-quinolizine-2-carbonyl]-amino)-propionic Acid Hydrochloride] | 5.03 | 7.62 | –
NCCCCOc1ccn2c(=O)cc(C(=O)NC[C@H](NS(=O)(=O)c3ccccc3)C(=O)O)cc2c1 [Compound XXXII, (S)-3-{[8-(4-Amino-butoxy)-4-oxo-4H-quinolizine-2-carbonyl]-amino}-2-benzenesulfonylamino-propionic Acid Trifluoroacetic Acid Salt] | 4.92 | 8.26 | –
N=C(N)NCCCCOc1ccn2c(=O)cc(C(=O)NC[C@H](NS(=O)(=O)c3ccccc3)C(=O)O)cc2c1 [Compound XXXIII, (S)-2-Benzenesulfonylamino-3-{[8-(4-guanidino-butoxy)-4-oxo-4H-quinolizine-2-carbonyl]-amino}-propionic Acid Hydrochloride] | 4.82 | 7.36 | –
NCCCCCOc1ccn2c(=O)cc(C(=O)NC[C@H](NS(=O)(=O)c3ccccc3)C(=O)O)cc2c1 [Compound XXXIV, (S)-3-{[8-(S-Amino-pentyloxy)-4-oxo-4H-quinolizine-2-carbonyl]-amino}-2-benzenesulfonylamino-propionic Acid Trifluoroacetic Acid Salt] | 4.77 | 7.80 | –
N=C(N)NCCCCCOc1ccn2c(=O)cc(C(=O)NC[C@H](NS(=O)(=O)c3ccccc3)C(=O)O)cc2c1 [Compound XXXV, (S)2-Benzenesulfonylamino-3-{[8-(5-guanidino-pentyloxy)-4-oxo-4H-quinolizine-2-carbonyl]-amino}propionic Acid Hydrochloride] | 4.82 | 5.82 | –
